According to ChEMBL document CHEMBL3822440, “Semi-synthesis and antiproliferative evaluation of PEGylated pentacyclic triterpenes” (Eur J Med Chem, 2016):
Calls of active or inactive are those of the source. The rule behind the calls is not given here.

Assays:
[1] = Cytotoxicity against mouse B16F10 cells assessed as growth inhibition after 72 hrs by MTT assay; assay type: functional, cell-based; details: B16-F10, 72 h
HT-29 [2] = experiment: Cytotoxicity against human HT-29 cells assessed as growth inhibition after 72 hrs by MTT assay; assay type: functional, cell-based; details: HT-29, 72 h
HepG2 [3] = experiment: Cytotoxicity against human HepG2 cells assessed as growth inhibition after 72 hrs by MTT assay; assay type: functional, cell-based; details: HepG2, 72 h
B16-F10 [4] = experiment: Potency index, ratio of maslinic acid IC50 to compound IC50 for mouse B16F10 cells; assay type: functional
HT-29 [5] = experiment: Potency index, ratio of maslinic acid IC50 to compound IC50 for human HT-29 cells; assay type: functional
HepG2 [6] = experiment: Potency index, ratio of maslinic acid IC50 to compound IC50 for human HepG2 cells; assay type: functional
[7] = Induction of apoptosis in mouse B16F10 cells assessed as early apoptotic cells at cytotoxic IC50 after 72 hrs by Annexin V-FITC/propidium iodide staining based flow cytometry (reference value: 0.75 +/- 0.07%); assay type: functional, B16-F10
[8] = Induction of apoptosis in mouse B16F10 cells assessed as late apoptotic cells at cytotoxic IC50 after 72 hrs by Annexin V-FITC/propidium iodide staining based flow cytometry (reference value: 0.75 +/- 0.21%); assay type: functional, B16-F10
[9] = Induction of apoptosis in mouse B16F10 cells assessed as necrotic cells at cytotoxic IC50 after 72 hrs by Annexin V-FITC/propidium iodide staining based flow cytometry (reference value: 0.75 +/- 0.07%); assay type: functional, B16-F10
HT-29 [10] = experiment: Induction of apoptosis in human HT-29 cells assessed as live cells at cytotoxic IC50 after 72 hrs by Annexin V-FITC/propidium iodide staining based flow cytometry (reference value: 96.65 +/- 0.78%); assay type: functional
HT-29 [11] = experiment: Induction of apoptosis in human HT-29 cells assessed as late apoptotic cells at cytotoxic IC50 after 72 hrs by Annexin V-FITC/propidium iodide staining based flow cytometry (reference value: 0.65 +/- 0.35%); assay type: functional
HT-29 [12] = experiment: Induction of apoptosis in human HT-29 cells assessed as necrotic cells at cytotoxic IC50 after 72 hrs by Annexin V-FITC/propidium iodide staining based flow cytometry (reference value: 1.05 +/- 0.35%); assay type: functional
HepG2 [13] = experiment: Induction of apoptosis in human HepG2 cells assessed as early apoptotic cells at cytotoxic IC50 after 72 hrs by Annexin V-FITC/propidium iodide staining based flow cytometry (reference value: 0.3 +/- 0.01%); assay type: functional
HepG2 [14] = experiment: Induction of apoptosis in human HepG2 cells assessed as necrotic cells at cytotoxic IC50 after 72 hrs by Annexin V-FITC/propidium iodide staining based flow cytometry (reference value: 0.1 +/- 0.01%); assay type: functional
[15] = Cell cycle arrest in mouse B16F10 cells assessed as accumulation at G0/G1 phase at cytotoxic IC50 after 72 hrs by propidium iodide staining based flow cytometry (reference value: 50.69 +/- 0.61%); assay type: functional, B16-F10
HT-29 [16] = experiment: Cell cycle arrest in human HT-29 cells assessed as accumulation at S phase at cytotoxic IC50 after 72 hrs by propidium iodide staining based flow cytometry (reference value: 48.31 +/- 1.49%); assay type: functional
HT-29 [17] = experiment: Cell cycle arrest in human HT-29 cells assessed as accumulation at G2/M phase at cytotoxic IC50 after 72 hrs by propidium iodide staining based flow cytometry (reference value: 6.23 +/- 1.7%); assay type: functional
HepG2 [18] = experiment: Cell cycle arrest in human HepG2 cells assessed as accumulation at G0/G1 phase at cytotoxic IC50 after 72 hrs by propidium iodide staining based flow cytometry (reference value: 39.41 +/- 1.56%); assay type: functional
[19] = Disruption of mitochondrial membrane potential in mouse B16F10 cells assessed as rhodamine123 negative cells at cytotoxic IC50 after 72 hrs by propidium iodide staining based fluorescence spectroscopic analysis (reference value: 4.45 +/- 0.64%); assay type: functional, B16-F10
HT-29 [20] = experiment: Disruption of mitochondrial membrane potential in human HT-29 cells assessed as rhodamine123 negative cells at cytotoxic IC50 after 72 hrs by propidium iodide staining based fluorescence spectroscopic analysis (reference value: 5.8 +/- 0.42%); assay type: functional
HepG2 [21] = experiment: Disruption of mitochondrial membrane potential in human HepG2 cells assessed as rhodamine123 negative cells at cytotoxic IC50 after 72 hrs by propidium iodide staining based fluorescence spectroscopic analysis (reference value: 11.7 +/- 6.8%); assay type: functional
B16-F10 [22] = experiment: Induction of apoptosis in mouse B16F10 cells assessed as nucleus containing nicked DNA at cytotoxic IC50 after 72 hrs by Hoechst staining based fluorescence microscopic analysis; assay type: functional, cell-based
B16-F10 [23] = experiment: Induction of apoptosis in mouse B16F10 cells assessed as cell shrinkage at cytotoxic IC50 after 72 hrs by Hoechst staining based fluorescence microscopic analysis; assay type: functional
B16-F10 [24] = experiment: Induction of apoptosis in mouse B16F10 cells assessed as spherical cell shape at cytotoxic IC50 after 72 hrs by Hoechst staining based fluorescence microscopic analysis; assay type: functional
B16-F10 [25] = experiment: Induction of apoptosis in mouse B16F10 cells assessed as bubble shaped region in cell surface at cytotoxic IC50 after 72 hrs by Hoechst staining based fluorescence microscopic analysis; assay type: functional
B16-F10 [26] = experiment: Induction of apoptosis in mouse B16F10 cells assessed as chromatin condensation at cytotoxic IC50 after 72 hrs by Hoechst staining based fluorescence microscopic analysis; assay type: functional, cell-based
B16-F10 [27] = experiment: Induction of apoptosis in mouse B16F10 cells assessed as loss of nuclear architecture at cytotoxic IC50 after 72 hrs by Hoechst staining based fluorescence microscopic analysis; assay type: functional, cell-based
B16-F10 [28] = experiment: Induction of apoptosis in mouse B16F10 cells assessed as disruption of cell membrane integrity at cytotoxic IC50 after 72 hrs by Hoechst staining based fluorescence microscopic analysis; assay type: functional
HT-29 [29] = experiment: Induction of apoptosis in human HT-29 cells assessed as nucleus containing nicked DNA at cytotoxic IC50 after 72 hrs by Hoechst staining based fluorescence microscopic analysis; assay type: functional, cell-based
HT-29 [30] = experiment: Induction of apoptosis in human HT-29 cells assessed as cell shrinkage at cytotoxic IC50 after 72 hrs by Hoechst staining based fluorescence microscopic analysis; assay type: functional
HT-29 [31] = experiment: Induction of apoptosis in human HT-29 cells assessed as spherical cell shape at cytotoxic IC50 after 72 hrs by Hoechst staining based fluorescence microscopic analysis; assay type: functional
HT-29 [32] = experiment: Induction of apoptosis in human HT-29 cells assessed as bubble shaped region in cell surface at cytotoxic IC50 after 72 hrs by Hoechst staining based fluorescence microscopic analysis; assay type: functional
HT-29 [33] = experiment: Induction of apoptosis in human HT-29 cells assessed as chromatin condensation at cytotoxic IC50 after 72 hrs by Hoechst staining based fluorescence microscopic analysis; assay type: functional, cell-based
HT-29 [34] = experiment: Induction of apoptosis in human HT-29 cells assessed as loss of nuclear architecture at cytotoxic IC50 after 72 hrs by Hoechst staining based fluorescence microscopic analysis; assay type: functional, cell-based
HT-29 [35] = experiment: Induction of apoptosis in human HT-29 cells assessed as disruption of cell membrane integrity at cytotoxic IC50 after 72 hrs by Hoechst staining based fluorescence microscopic analysis; assay type: functional
HepG2 [36] = experiment: Induction of apoptosis in human HepG2 cells assessed as cell shrinkage at cytotoxic IC50 after 72 hrs by Hoechst staining based fluorescence microscopic analysis; assay type: functional
HepG2 [37] = experiment: Induction of apoptosis in human HepG2 cells assessed as chromatin condensation at cytotoxic IC50 after 72 hrs by Hoechst staining based fluorescence microscopic analysis; assay type: functional, cell-based

| SMILES | IC50 [1] [µM] | IC50 (HT-29 [2]) [µM] | IC50 (HepG2 [3]) [µM] | Ratio IC50 (B16-F10 [4]) | Ratio IC50 (HT-29 [5]) | Ratio IC50 (HepG2 [6]) | Activity [7] [%] | Activity [8] [%] | Activity [9] [%] | Activity (HT-29 [10]) [%] | Activity (HT-29 [11]) [%] | Activity (HT-29 [12]) [%] | Activity (HepG2 [13]) [%] | Activity (HepG2 [14]) [%] | Activity [15] [%] | Activity (HT-29 [16]) [%] | Activity (HT-29 [17]) [%] | Activity (HepG2 [18]) [%] | Activity [19] [%] | Activity (HT-29 [20]) [%] | further results |
| --- | --- | --- | --- | --- | --- | --- | --- | --- | --- | --- | --- | --- | --- | --- | --- | --- | --- | --- | --- | --- | --- |
| COCCOCCOCC(=O)O[C@@H]1C[C@]2(C)[C@H]3CC=C4[C@@H]5CC(C)(C)CC[C@]5(C(=O)O)CC[C@@]4(C)[C@]3(C)CC[C@H]2C(C)(C)[C@H]1OC(=O)COCCOCCOC | 48.4 | 39.7 | 59.9 | 0.7 | 0.8 | 1.7 | 32.8 | 56.05 | 0 | 59.75 | 0.15 | 0 | 14.75 | 0.4 | 87.93 | 4.97 | 0.76 | 58.19 | 24.9 | 5.7 | Activity (HepG2 [21]): 43.2%; Activity (B16-F10 [22]): Active; Activity (B16-F10 [23]): Active; Activity (B16-F10 [24]): Active; Activity (B16-F10 [25]): Active; Activity (B16-F10 [26]): Active; Activity (B16-F10 [27]): Active; Activity (B16-F10 [28]): Active; Activity (HT-29 [29]): Active; Activity (HT-29 [30]): Active; Activity (HT-29 [31]): Active; Activity (HT-29 [32]): Active; Activity (HT-29 [33]): Active; Activity (HT-29 [34]): Active; Activity (HT-29 [35]): Active; Activity (HepG2 [36]): Active; Activity (HepG2 [37]): Active |
| CC1(C)CC[C@]2(C(=O)NCCCOCCOCCOCCCN)CC[C@]3(C)C(=CC[C@@H]4[C@@]5(C)C[C@@H](O)[C@H](O)C(C)(C)[C@@H]5CC[C@]43C)[C@@H]2C1 | 11.4 | 11.8 | 7.68 | 3.2 | 2.7 | 12.9 | 60.25 | 38.65 | 0.2 | 61 | 7.6 | 0.2 | 46.75 | 0.4 | 66.66 | 7.12 | 13.1 | 40.22 | 51.95 | 36.95 | Activity (HepG2 [21]): 40.85%; Activity (B16-F10 [22]): Active; Activity (B16-F10 [23]): Active; Activity (B16-F10 [24]): Active; Activity (B16-F10 [25]): Active; Activity (B16-F10 [26]): Active; Activity (B16-F10 [27]): Active; Activity (B16-F10 [28]): Active; Activity (HT-29 [29]): Active; Activity (HT-29 [30]): Active; Activity (HT-29 [31]): Active; Activity (HT-29 [32]): Active; Activity (HT-29 [33]): Active; Activity (HT-29 [34]): Active; Activity (HT-29 [35]): Active; Activity (HepG2 [36]): Active; Activity (HepG2 [37]): Active |
